Results published in publication PMC8539145, “Function and Characterization Analysis of BodoOBP8 from Bradysia odoriphaga (Diptera: Sciaridae) in the Recognition of Plant Volatiles and Sex Pheromones” (Insects, 2021).
pIC50, pKd, pKi: −log10 of the molar value. Values joined by “and” are separate entries in the source; they are usually repeats but may differ in a detail not shown here. Identical values can stand only once. Like-named read-outs stand apart in the source and are kept apart here.

Target: BodoOBP8 (Bradysia odoriphaga, UniProt A0A2S0X9G3)
Experiment: Fluorescence competitive binding assay (1-NPN probe) with recombinant BodoOBP8
Method: For the binding assays, all test ligands (Table S1) were dissolved in methanol, and N-phenyl-1-naphthylamine (1-NPN) was used as a fluorescent probe.

[1] = recombinant BodoOBP8, calculated from IC50 of 1-NPN displacement, read-out: Ki
[2] = recombinant BodoOBP8, displacement of 1-NPN, read-out: IC50
[3] = Ki, recombinant BodoOBP8, calculated from IC50 of 1-NPN displacement
[4] = pH 7.4, Figure 3B, read-out: Ki

Sequence of BodoOBP8 (A0A2S0X9G3 entry or part of it): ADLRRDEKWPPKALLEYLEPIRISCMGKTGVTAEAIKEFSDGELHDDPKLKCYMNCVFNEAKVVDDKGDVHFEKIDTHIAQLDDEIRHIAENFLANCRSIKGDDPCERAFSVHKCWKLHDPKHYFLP

Row | Structure (SMILES) | pKi [1] | pIC50 [2] | further results
1 | CC12CCC(CC1)C(C)(C)O2 [1,8-Cineole] | < 4.30 | < 4.30 | 
2 | c1ccc(Nc2cccc3ccccc23)cc1 [1-NPN, N-phenyl-1-naphthylamine, reference compound] |  |  | pKd: 5.66
3 | CCCCC(C)=O [2-Hexanone] |  |  | pIC50: < 4.30; pKi [3]: < 4.30
4 | C=C(C)[C@H]1CC=C(C)CC1 [(R)-(+)-Limonene] | < 4.30 | < 4.30 | 
5 | CC(=O)c1ccccc1 [Acetophenone] | < 4.30 | < 4.30 | 
6 | O=Cc1ccccc1 [Benzaldehyde] |  |  | pIC50: < 4.30; pKi [3]: < 4.30
7 | CCCCOC(=O)CCC(C)=O [Butyl levulinate] | < 4.30 | < 4.30 | 
8 | Cc1ccc(C(C)C)cc1O [Carvacrol] |  |  | pIC50: < 4.30; pKi [3]: < 4.30
9 | CC(C)=CCCC(C)CCO (stereo not drawn) [Citronellol] | < 4.30 | < 4.30 | 
10 | CCCCCCCCCC=O [Decanal] | < 4.30 | < 4.30 | 
11 | C=CCSSCC=C [Diallyl disulfide] |  |  | pIC50: 5.00; pKi (Ki, pH 7.4, Figure 3B): 5.39; pKi [3]: 5.17; pKi (recombinant BodoOBP8, calculated from IC50 of 1-NPN displacement): > 5.00
12 | CCCCCCCCCCCC [Dodecane] | < 4.30 | < 4.30 | 
13 | CCCCCCCCCCCC=O [Dodecyl aldehyde] | < 4.30 | < 4.30 | 
14 | CCCCCCC=O [Heptanal] | < 4.30 | < 4.30 | 
15 | CCCCCCCCCCCCCCCC [Hexadecane] | < 4.30 | < 4.30 | 
16 | C=CC(C)(O)CCC=C(C)C (stereo not drawn) [Linalool] |  |  | pIC50: < 4.30; pKi [3]: < 4.30

Row | Structure (SMILES) | pKi [1] | pIC50 [2] | further results
17 | C=CCSSC [Methyl allyl disulfide] |  | 5.10 | pKi [4]: 5.17
18 | COC(=O)Cc1ccccc1 [Methyl phenylacetate] |  |  | pIC50: < 4.30; pKi [3]: < 4.30
19 | COC(=O)c1ccccc1O [Methyl salicylate] |  |  | pIC50: < 4.30; pKi [3]: < 4.30
20 | CCCCCCCCC=O [Nonanal] | < 4.30 | < 4.30 | 
21 | CCCCCCCCC [Nonane] | < 4.30 | < 4.30 | 
22 | C=CC(C)=CCC=C(C)C [Ocimene] | < 4.30 | < 4.30 | 
23 | CCCCCCCC=O [Octanal] | < 4.30 | < 4.30 | 
24 | CCCCCCCCCCCCCC [Tetradecane] | < 4.30 | < 4.30 | 
25 | CCCCC=O [Valeric aldehyde] | < 4.30 | < 4.30 | 
26 | CC/C=C\CCO [cis-3-Hexen-1-ol] |  |  | pIC50: < 4.30; pKi [3]: < 4.30
27 | CCCCCCCCCCCCCCCCC [n-Heptadecane] | 5.39 and > 5.00 | 5.22 | pKi [4]: 5.39
28 | CC(=O)/C=C/C1=C(C)CCCC1(C)C [ß-Ionone] | < 4.30 | < 4.30 | 
29 | C=C1CC/C=C(/C)CC[C@@H]2[C@@H]1CC2(C)C [ß-caryophyllene] | < 4.30 | < 4.30 | 
30 | C=C1CCC2CC1C2(C)C (stereo not drawn) [ß-pinene] | < 4.30 | < 4.30 | 
31 | C/C1=C\CC/C(C)=C/CC(C)(C)/C=C/C1 [α-Humulene] | < 4.30 | < 4.30 | 
32 | c1ccc2[nH]ccc2c1 [(H-11)Indole, Indole] |  |  | pIC50: < 4.30; pKi [3]: < 4.30
